The source of these data is article PMC9146163, “Novel Au Carbene Complexes as Promising Multi-Target Agents in Breast Cancer Treatment” (Pharmaceuticals, 2022).

Data set [1] concerns caspases 3/7, 8, and 9 in MCF-7 cells. Put plainly: Caspase-Glo assay, MCF-7. It counts as cell-based, human. The settings on record: IC50 value, 24 h; vs vehicle. As for the experimental part: (§1) The activities of caspases 3/7, 8, and 9 were measured by using the Caspase-Glo Assay according to the manufacturer’s guidelines (Caspase-Glo 3/7, 8, and 9 Assay Systems, Promega Corporation, Madison, WI, USA), as already described. The luminescence was detected in a plate-reading luminometer (Synergy H1 Hybrid Reader, BioTek) for 30 min to 3 h (λex/em = 490/570 nm). Results were reported as signal-to-noise ratio (background was determined from the culture medium without cells). The experiments were performed in triplicate.

The subject of the next data set is NF-κB in MCF-7 cells. Nature of the data set: NF-κB immunofluorescence, MCF-7. It counts as cell-based, human. The following applies: IC50 value, 24 h. How it is done:
(§2) The MitoTracker Deep Red FM probe (MitoTracker Mitochondrion-Selective Probes, Invitrogen European Headquarters, Paisley, PA4 9RF, UK) was used for mitochondrial staining, as previously described. For immunofluorescence analysis, the cells were seeded and further processed, as reported by Iacopetta et al.. The primary antibodies used were: rabbit anti-β-Actin and vimentin (Santa Cruz Biotechnology, Dallas, TX, USA), mouse anti cytochrome c and NF-κB p65 (Abcam, Cambridge, UK), diluted 1:100 in bovine serum albumin (BSA) 2% overnight at 4 °C. The secondary antibodies were: Alexa Fluor® 488 conjugate goat-anti-rabbit and Alexa Fluor® 568 conjugate goat-anti-mouse (Thermo Fisher Scientific, MA, USA), diluted 1:500 and incubated for 2h at 37 °C. DAPI 0.2 μg/mL (Sigma Aldrich, Milan, Italy) was used for nuclei staining. […] All the images were acquired and processed using the LAS-X software.

Data set [2] deals with cytochrome c in MCF-7 cells. Nature of the data set: Mitochondria staining and cytochrome c detection, MCF-7. It counts as cell-based, human. The following applies: IC50 value, 24 h. As for the experimental part:
as §2

In a further data set the test system is vimentin in MCF-7 cells. Nature of the data set: Vimentin expression (immunofluorescence), MCF-7. The format is cell-based, human. The settings on record: fluorescence quantification; IC50 value, 24 h. How it is done: as §2
Protein lysates underwent the SDS-PAGE process, as already defined. Then lysates were resolved on a 7.5% SDS polyacrylamide gel, transferred to a nitrocellulose membrane, and probed with antibodies against vimentin and GAPDH (Santa Cruz Biotechnology, Dallas, TX, USA). […] The images are representative of three independent experiments.

The subject of a further data set is NF-κB in MCF-10A cells. Put plainly: NF-κB immunofluorescence, MCF-10A. It counts as cell-based, human. How it is done: as §2
L: Figure S6. NF-κB expression in MCF-10A cells
CTRL cells and in the cells exposed to compounds 1 and 6 NF-κB is localized within the cytoplasm and nucleus. Panels A, nuclear stain with DAPI (λex/em= 350/460 nm); panels B, Alexa Fluor CF 488 (λex/em= 490/515 nm); panels C, overlay channels. Images were acquired at 40x magnification and repres entative fields are shown.

Another data set concerns β-actin in MCF-7 cells. Put plainly: Actin immunofluorescence, MCF-7. The format is cell-based, human. The following applies: 24 h; compound 6 at its IC50 value, LA 0.1 µM. How it is done:
as §2

For another data set, the system named is MCF-10A cells. Nature of the data set: MTT assay, normal MCF-10A. It counts as cell-based, human. The following applies: MTT; for IC50: 72 h, normal cells, mean ± SD, read-out: IC50 MCF-10A. As for the experimental part: The five employed cell lines were purchased from American Type Culture Collection (ATCC, Manassas, VA, USA) and maintained as already reported. […] SkBr3 cells were maintained in DMEM high glucose, supplemented with 10% FBS and 100 μg/mL penicillin/streptomycin.
[…] Results are represented as percent (%) of basal and the IC50 values were calculated using GraphPad Prism 9 (GraphPad Software, La Jolla, CA, USA).
On the technique in general: Tetrazolium assays rely on reduction of a dye to a coloured formazan, in cell work by metabolically active cells.

The target of data set [3] is T1, Labeled Rabbit Muscle Actin (Oryctolagus cuniculus, UniProt P68135).
T1 construct: purchased Abcam (Actin Polymerization/Depolymerization Assay Kit)
Nature of the data set: In vitro actin polymerization assay. The format is biochemical. The settings on record: 5 µM. How it is done:
The ability of the tested compounds to interfere with the actin polymerization and depolymerization reaction was measured using an Actin Polymerization/Depolymerization Assay Kit purchased from Abcam, following the manufacturer’s instructions. […] For the polymerization assay, reconstituted actin was mixed with supplemented Buffer G and samples in a white 96-well plate and then the polymerization reaction was induced with the addition of the Buffer P supplemented with 10 mM ATP. The solution was mixed and the data acquisition started. For the Actin Depolymerization Assay, supplemented Buffers P and G were mixed and incubated in a white 96-well plate at room temperature for one hour to polymerize the actin, protected from light. Then samples were added and the data acquisition started. Latrunculin A and Cytochalasin B were used as control molecules at a concentration of 5 μM. For both the assays, the assembly of actin filaments was determined by measuring the fluorescence (Ex/Em: 365/410 nm) in kinetic mode for 1 h at room temperature using a microplate reader.

A short description of data set [4]: LogP determination (1-octanol/water, UV/vis). The format is physicochemical. The settings on record: log[complex]oct/[complex]H2O, 55 μM, UV-Vis. How it is done:
The logarithm of the partition coefficient (LogP) was evaluated by making a slight modification to the procedure reported in ref. [79]. Equal volumes of 1-octanol and water (distilled after milli-Q purification) were stirred for 20 h at room temperature. Then, they were separated to give 1-octanol-saturated water and water-saturated 1-octanol. Six (10, 20, 40, 50, 60 and 100 μM) standard concentrations of the compounds were prepared from the water-saturated 1-octanol. Analysis using UV/vis spectroscopy was used to obtain a calibration curve of absorbance vs. concentration. For each complex, a solution was prepared in the water-saturated 1-octanol (55 μM) and an equal volume of 1-octanol-saturated water was added. The solutions (biphasic) were mixed for 15 min and then centrifuged for 1h at 6500 rpm to allow separation.
Concentration in water-saturated 1-octanol was determined by UV-Vis spectroscopy. Reported LogP is defined as log[complex]oct/[complex]H2O.

Data set [5] has as its target T2, human topoisomerase II (hTopo II) (Homo sapiens, UniProt P11388).
T2 construct: purchased TopoGEN, Port Orange, FL
Nature of the data set: hTopo II decatenation assay. It counts as biochemical. The settings on record: 1 μM; kDNA, agarose gel.

Data set [6] deals with caspases 3/7, 8, and 9 in MCF-10A cells. Nature of the data set: Caspase-Glo assay, MCF-10A. The following applies: IC50 values, 24 h; vs vehicle. It counts as cell-based, human. As for the experimental part:
as §1
H: Figure S4. Caspases activity in MCF-10A cells
Caspase 3/7 Caspase 8 Caspase 9
Figure S4. Caspases activity.
between th e vehicl e-treated cells, us ed as control, and the cells treated with compounds 1 and 6. Both
The data are representative of […]

The target of data set [7] is T3, human topoisomerase I (hTopo I) (Homo sapiens, UniProt P11387).
T3 construct: purchased TopoGEN, Port Orange, FL, USA
T3 sequence (P11387 whole entry): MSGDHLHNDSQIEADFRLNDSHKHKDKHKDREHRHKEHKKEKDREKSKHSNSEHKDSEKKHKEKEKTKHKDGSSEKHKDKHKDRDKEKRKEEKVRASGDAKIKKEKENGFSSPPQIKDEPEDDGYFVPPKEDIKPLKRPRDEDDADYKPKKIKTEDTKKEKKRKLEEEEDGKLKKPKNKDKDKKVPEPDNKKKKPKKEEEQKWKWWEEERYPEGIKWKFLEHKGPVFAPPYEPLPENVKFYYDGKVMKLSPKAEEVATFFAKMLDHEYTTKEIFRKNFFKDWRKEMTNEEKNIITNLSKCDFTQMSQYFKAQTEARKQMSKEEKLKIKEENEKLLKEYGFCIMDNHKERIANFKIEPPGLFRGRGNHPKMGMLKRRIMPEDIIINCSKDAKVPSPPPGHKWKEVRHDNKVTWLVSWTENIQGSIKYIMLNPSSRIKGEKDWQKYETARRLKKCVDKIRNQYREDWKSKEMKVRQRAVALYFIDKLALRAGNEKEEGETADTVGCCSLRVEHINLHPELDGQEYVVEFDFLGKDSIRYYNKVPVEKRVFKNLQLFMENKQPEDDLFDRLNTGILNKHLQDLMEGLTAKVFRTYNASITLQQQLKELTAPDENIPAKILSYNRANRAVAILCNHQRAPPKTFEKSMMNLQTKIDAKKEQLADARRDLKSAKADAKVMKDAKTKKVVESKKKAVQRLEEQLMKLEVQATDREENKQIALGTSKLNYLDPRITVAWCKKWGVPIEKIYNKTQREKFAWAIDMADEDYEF
Put plainly: hTopo I relaxation assay. The format is biochemical. The settings on record: 1 μM; supercoiled pHOT1, agarose gel.

Data set [8] has as its system cytochrome c in MDA-MB-231 cells. Nature of the data set: Mitochondria staining and cytochrome c detection, MDA-MB-231. The format is cell-based, human. The following applies: IC50 value, 24 h. As for the experimental part: as §2
The test system of data set [9] is NF-κB in MDA-MB-231 cells. Nature of the data set: NF-κB immunofluorescence, MDA-MB-231. The format is cell-based, human. The settings on record: IC50 value, 24 h. As for the experimental part:
as §2

“Also recorded” adds a separate entry of the source.

T2 sequence (P11388 whole entry): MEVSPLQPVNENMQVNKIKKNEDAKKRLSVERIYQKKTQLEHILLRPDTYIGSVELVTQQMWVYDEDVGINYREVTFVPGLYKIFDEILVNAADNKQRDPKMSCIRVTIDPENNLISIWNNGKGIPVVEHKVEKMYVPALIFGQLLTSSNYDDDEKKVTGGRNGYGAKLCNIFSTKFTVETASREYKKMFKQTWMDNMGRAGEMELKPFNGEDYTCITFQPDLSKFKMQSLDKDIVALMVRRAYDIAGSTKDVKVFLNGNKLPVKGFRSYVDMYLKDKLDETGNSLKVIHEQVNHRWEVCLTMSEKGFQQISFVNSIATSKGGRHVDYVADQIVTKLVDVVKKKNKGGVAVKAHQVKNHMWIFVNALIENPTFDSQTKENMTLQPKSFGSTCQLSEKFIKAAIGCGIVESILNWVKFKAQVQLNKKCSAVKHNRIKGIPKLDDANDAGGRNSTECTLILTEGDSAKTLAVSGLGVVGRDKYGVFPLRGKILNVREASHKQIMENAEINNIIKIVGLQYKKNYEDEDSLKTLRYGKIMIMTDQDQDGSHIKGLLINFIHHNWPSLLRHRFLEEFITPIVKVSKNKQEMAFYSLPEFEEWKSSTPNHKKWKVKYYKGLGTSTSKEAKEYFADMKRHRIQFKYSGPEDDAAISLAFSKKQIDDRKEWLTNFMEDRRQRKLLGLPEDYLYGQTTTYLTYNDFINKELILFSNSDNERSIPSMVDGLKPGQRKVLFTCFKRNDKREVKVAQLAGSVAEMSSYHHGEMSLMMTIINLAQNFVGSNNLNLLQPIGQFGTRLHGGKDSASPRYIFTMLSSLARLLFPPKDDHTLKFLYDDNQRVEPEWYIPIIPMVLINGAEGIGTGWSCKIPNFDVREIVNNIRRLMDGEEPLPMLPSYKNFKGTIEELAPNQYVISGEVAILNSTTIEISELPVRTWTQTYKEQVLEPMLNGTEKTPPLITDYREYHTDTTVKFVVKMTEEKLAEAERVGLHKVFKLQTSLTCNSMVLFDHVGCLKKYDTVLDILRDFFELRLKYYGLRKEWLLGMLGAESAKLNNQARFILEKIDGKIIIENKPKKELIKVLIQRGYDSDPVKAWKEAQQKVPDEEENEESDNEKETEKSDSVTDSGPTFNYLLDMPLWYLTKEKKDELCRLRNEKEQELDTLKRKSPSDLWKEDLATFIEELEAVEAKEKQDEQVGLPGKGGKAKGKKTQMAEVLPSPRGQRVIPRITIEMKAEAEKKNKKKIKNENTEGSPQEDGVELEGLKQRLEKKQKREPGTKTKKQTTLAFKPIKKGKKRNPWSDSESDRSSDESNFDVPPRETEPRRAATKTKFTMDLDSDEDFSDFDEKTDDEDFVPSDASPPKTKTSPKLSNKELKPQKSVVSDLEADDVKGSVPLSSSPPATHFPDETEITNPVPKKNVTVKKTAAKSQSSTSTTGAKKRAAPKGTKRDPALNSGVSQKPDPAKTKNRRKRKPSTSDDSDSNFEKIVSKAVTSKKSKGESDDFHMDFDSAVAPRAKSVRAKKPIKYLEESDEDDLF

As a reminder, the IC50 is the concentration at which inhibition is half-maximal. For orientation: LogP means a log measure of how a compound divides between an organic and an aqueous phase. The low end stands for lower lipophilicity, the high end for higher lipophilicity. `CC(=O)[O-].Cn1c(Cl)c(Cl)n(CC(O)c2ccccc2)[c]1=[Au+]=[c]1n(C)c(Cl)c(Cl)n1CC(O)c1ccccc1` (stereo not shown) [Compound 6, Bis [4,5-dichloro-(N-methyl, N’(2-hydroxy-2-phenyl-ethyl)imidazole-2-ylidine]gold(I)] acetate]: in data set [1], the “caspase-3 and -7 activity, MCF-7” value is recorded as “clear increase”; the “caspase-8 activity, MCF-7” value is listed as “significant rise”; the “caspase-9 activity, MCF-7” value was “no increase”. In the data set with NF-κB in MCF-7 cells, the “NF-κB translocation, MCF-7” value is “reduced the translocation of NF-κB from the cytoplasm to the nucleus”. Further, the “cytochrome c localization, MCF-7” value in data set [2] is “cytochrome c is localized within mitochondria”. For the same compound, the “reduction of vimentin expression with respect to the control, MCF-7” value with vimentin in MCF-7 cells was “two-fold”. In addition, in the data set with NF-κB in MCF-10A cells, the “NF-κB localization, MCF-10A” value was “localized within the cytoplasm and nucleus”. Moreover, in the data set on β-actin in MCF-7 cells, the “actin organization in MCF-7 cells” value is “actin bundles appeared thicker and dramatically packed into the cytoplasm”. In addition, the IC50 with MCF-10A cells was 24.4 ± 0.9 µM. Besides, the “effect on actin polymerization (in words)” value in data set [3] is listed as “inhibiting activity higher that CB but lesser than LA”. This compound displayed a LogP in [4] of 0.78. Further, the “inhibition of hTopo II decatenation activity” value in [5] is “totally inhibited”. Besides, in data set [6], the “caspases 3/7, 8 and 9 activity levels, MCF-10A” value is listed as “No differences”. In addition, the “inhibition of hTopo I supercoil relaxing activity” value in data set [7] is listed as “totally inhibit”.
Regarding `Cn1ccn(CC([O-])c2ccccc2)[c]1=[Au+]=[c]1n(C)ccn1CC([O-])c1ccccc1.[Cl-].[Na+].[Na+]` (stereo not shown) [Compound 1], in [8], the “cytochrome c localization, MDA-MB-231” value is on record as “cytochrome c is localized within mitochondria”. For the same compound, the “NF-κB translocation, MDA-MB-231” value in data set [9] is “reduced the translocation of NF-κB from the cytoplasm to the nucleus”. Further, the “NF-κB localization, MCF-10A” value with NF-κB in MCF-10A cells is “localized within the cytoplasm and nucleus”. Also, the IC50 in the data set with MCF-10A cells was above 200 µM. The “cytotoxicity against the normal MCF-10A cells (in words)” value in the data set on MCF-10A cells (up to the concentration of 200 μM) is given as “complete lack of cytotoxicity; also recorded: completely lack of cytotoxicity”. The “effect on actin polymerization (in words)” value in data set [3] was “inhibiting activity higher that CB but lesser than LA”. This compound showed an actin polymerization curve, final value in data set [3] (end of 1 h kinetic read, control about 37.000 RFU) of 17000 RFU. In [4], this compound came in with a lipophilicity (LogP) of 0.079. In [5], the “inhibition of hTopo II decatenation activity” value was “totally inhibited”. Also, the “caspases 3/7, 8 and 9 activity levels, MCF-10A” value in [6] is on record as “No differences”. Besides, the “inhibition of hTopo I supercoil relaxing activity” value in [7] is listed as “totally inhibit”.
